Data from ChEMBL document CHEMBL3507680, “University of Dundee, Gates Library screen for HepG2 cell viability”.

assay: Human HepG2 cell viability assay in 384 well format; assay type: toxicity, cell-based; design: dose 125 nL, time 70.5 hour; cytotoxicity at 70.5 h: concentration not given beside the values; settings: HepG2 cells, read-out: Inhibition

Row | Compound | cytotoxicity at 70.5 h [%]
1 | Cc1[nH]n(-c2ccccc2)c2nnc(N)c1-2 | -2.04
2 | O=C(CCc1ccccc1Br)N1CC(S(=O)(=O)C2CCCCC2)C1 | -5.63
3 | Cc1ccc(N2CC3(CCN(Cc4nccn4C)C3)CC2=O)s1 (stereo not drawn) | -14.5
4 | CCOC(=O)N1CCN(c2nc(CCN)nc3sc(C)c(C)c23)CC1 | 1.12
5 | Cc1ncnc2c1CCN(C(=O)c1ccncc1F)CC2 | -8.13
6 | Cc1c(Cl)cccc1S(=O)(=O)N1CCC2(CC1)OCCS2 | -1.11
7 | O=C(CCOc1ccccc1F)NC1CCCN(c2ccccn2)C1 (stereo not drawn) | -5.44
8 | Cc1cn2c(n1)CCC(NC(=O)c1cc(Br)cn1C)C2 (stereo not drawn) | 1.7
9 | CC(C)(C)OC(=O)N1CC(=O)N(Cc2ccco2)CC(O)C1 (stereo not drawn) | -7.3
10 | Cc1cc(NC(=O)NCC(O)c2ccc(Cl)cc2Cl)n(C)n1 (stereo not drawn) | -11.8
11 | CN(C)C1CCN(C(=O)c2cc3c(s2)CCN3C(=O)C2CC2)CC1 | -2.71
12 | O=C(NCC1CN(c2ncccn2)Cc2nccn2C1)c1cccnc1 (stereo not drawn) | -4.53
13 | COc1ccccc1OC1CN(C(=O)Cc2c(C)nc(N)nc2C)C1 | 1.7
14 | CC(C)n1c(C2CCCN(CCS(C)(=O)=O)C2)nc2ccccc21 (stereo not drawn) | -0.395
15 | CCc1cc(N[C@@H]2CC[C@@H](N)C2)n2nc(C)c(C)c2n1 | -7.75
16 | CC(C)(Oc1ccc(F)cc1)C(=O)NCc1ccco1 | -2.11
17 | CN(C)CC(=O)N1C[C@@H]2CC[C@H](Oc3ccccc3Cl)[C@@H]2C1 | -15.6
18 | Cc1nc(CN2CCCC(NCCOc3ccccc3)C2)no1 (stereo not drawn) | -5.84
19 | CC(NC(=O)Nc1cc(F)ccc1N1CCCCC1)c1nncn1C (stereo not drawn) | -4.36
20 | N#Cc1ccc(S(=O)(=O)NCCn2ccnc2)cc1Cl | -0.547
21 | CC[C@H]1CN2CC[C@H]1C[C@@H]2CNCc1ccc(OC(F)(F)F)cc1 | -7.22
22 | Cn1ccc(CN2CCC(OCCc3ccccc3)CC2)cc1=O | -5.72
23 | CCN(CC)C(=O)CSc1ccc(C(F)(F)F)cn1 | -6.72

Row | Compound | cytotoxicity at 70.5 h [%]
24 | CC1CCC(NC(=O)CNC2(c3ccc(Br)cc3)CCOCC2)CC1 (stereo not drawn) | 4.23
25 | O=C(NC1CCN(c2nccs2)CC1)c1cccs1 | 10.5
26 | Fc1cccnc1O[C@@H]1CN(Cc2ccccn2)[C@@H]2CCCO[C@@H]21 | -10.3
27 | CCc1ncc2c(n1)CN(Cc1cc(C)on1)CC2 | -106
28 | O=C(O)c1cc2c(nc1O)CC(c1cccs1)CC2=O (stereo not drawn) | -3.98
29 | O=C1[C@H]2CCCC[C@H]2C(=O)N1c1cnn(Cc2cccc(F)c2)c1 | 1.76
30 | Cc1cc(CCC(=O)NCc2ncc[nH]2)ccc1Br | -0.138
31 | COCc1ncn2c1CN(S(=O)(=O)c1ccc(C)cc1)CC2 | -0.994
32 | O=C(CN1CCCCC1C1OCCO1)Nc1ccc(F)c(F)c1 (stereo not drawn) | -2.55
33 | Cc1ccc(CN2CC[C@@H]3[C@@H]2CCN3C(=O)Cc2cccs2)o1 | -5.34
34 | O=C(NCCc1ccco1)Nc1cc(C(F)(F)F)c[nH]c1=O | -0.302
35 | CN1CCC2(CCCN(C(=O)c3cncn3C)C2)CC1 | -7.82
36 | COc1ccc2nnc(CCCC(=O)NCc3cccn3C)n2n1 | 6.5
37 | CS(=O)(=O)N1CCC(c2cnc(-c3cn[nH]c3)cn2)CC1 | 0.854
38 | CN1CCN(CC(=O)NCc2ccco2)Cc2ccccc21 | -13.5
39 | O=C(CCn1nc(-c2cccs2)oc1=O)Nc1cccc(F)c1 | -6.28
40 | Cc1cc(CC(=O)NC2CCCN(c3ccccc3F)C2=O)n[nH]1 (stereo not drawn) | 2.16
41 | O=C1CC[C@H]2[C@H](CCN2S(=O)(=O)C2CC2)N1CCN1CCCC1 | 25.5
42 | O=C(C1CSc2ccccc2O1)N1CCN(CCO)CC1 (stereo not drawn) | -14.3
43 | CC(C)(O)c1cc(CC2(NCc3ccco3)COC2)no1 | -7.88
44 | COCCN(C)C[C@@H]1CN(C(=O)C(C)(C)c2ccccc2)C[C@@H]1CO | 12.6
45 | Cc1cnc(N2C[C@@H]3[C@@H](C(=O)NCC(C)C)CCS(=O)(=O)[C@@H]3C2)nc1 | 0.36
46 | O=C(Cn1cccn1)NCC1CCCN(Cc2ccccc2)C1 (stereo not drawn) | -20.2

Row | Compound | cytotoxicity at 70.5 h [%]
47 | COCc1ncn2c1CN(S(=O)(=O)c1cccs1)CCC2 | 10.6
48 | Cc1nc(CO[C@H]2CN(Cc3cccs3)[C@@H]3COC[C@H]23)cs1 | -3.05
49 | COCCO[C@H]1CCN(C(=O)c2ccno2)[C@H]1Cc1cnn(C)c1 | -0.314
50 | COc1ccc(CN2CCCC(Cn3nc(C)nc3C)C2)cc1F (stereo not drawn) | -8.47
51 | Cc1ncsc1C(=O)NC1CCN(CCC(N)=O)CC1 | -21.4
52 | Cn1cc(CN2CCCC23CCN(C(=O)c2ccccc2)CC3)cn1 | -11.9
53 | Cn1nnc2cc(C(=O)N3CCC(Nc4cccnn4)CC3)ccc21 | -15.7
54 | CS(=O)(=O)c1cccc(OCC(=O)N2CCCC2c2ccc[nH]2)c1 (stereo not drawn) | -7.78
55 | Cc1cnn(CC(C)NCc2cc(=O)n3cc(C)ccc3n2)c1 (stereo not drawn) | -6.57
56 | CCS(=O)(=O)N1Cc2ccccc2CC1C(=O)OCc1c(C)noc1C (stereo not drawn) | -7.84
57 | CC(=O)N1CC(C(=O)NCCc2ncc(C)s2)C1 | -5.34
58 | CCCN1CCC(CNC(=O)C2(c3ccccc3)CCC2)C1 (stereo not drawn) | 18.5
59 | CCc1nc(C2CCCN2C(=O)c2ccc3c(c2)COC3)no1 (stereo not drawn) | -2.9
60 | CC(C)(C)CNC(=O)c1ccc(C(=O)O)nc1 | -9.27
61 | O=S(=O)(Cc1ccc(F)cc1)NCc1ccco1 | -2.47
62 | c1csc(-c2nc(CN3CCCC3Cn3cncn3)co2)c1 (stereo not drawn) | -10.5
63 | c1cn(CCNc2nc(NC3CC3)nc3c2CCNCC3)nn1 | -14.7
64 | NC(=O)c1cnc(NC2CC2)nc1CCNC(=O)CC1CCCC1 | -14.3
65 | O=C(c1cccc2ncccc12)N1CCCN(c2cccnn2)CC1 | -11.1
66 | Cc1nn(CCO)c(C)c1CNC1CCc2c(Cl)cccc21 (stereo not drawn) | 10.2
67 | N#Cc1ccc(C(=O)N2CC(c3nc(-c4ncccn4)no3)C2)cc1 | -13.2
68 | CC1c2ncc(CN3CCN(C)CC3)n2CCN1Cc1ccsc1 (stereo not drawn) | -0.917
69 | Cc1cccnc1NC(=O)NC(CCO)C(C)(C)C (stereo not drawn) | -2.8

Row | Compound | cytotoxicity at 70.5 h [%]
70 | Cc1nnc(NCC2(c3ccccc3)CCC2)c(C#N)c1C | 2.86
71 | O=C(c1cccc(F)c1)N1C[C@@H](CN2CCCCC2)[C@@H](CO)C1 | -7.48
72 | Cn1cc(NC(=O)NCc2ccsc2)ccc1=O | -2.03
73 | CC(=O)N1CCC(c2nccnc2Oc2ccccc2)CC1 | 1.62
74 | CCC(C)(C)NC(=O)c1ccc(-c2ccco2)[nH]c1=O | 0.821
75 | Cc1nn(C)c(Cl)c1C1CCCN1C(=O)c1cc[nH]n1 (stereo not drawn) | -13
76 | N#Cc1ccccc1N1CCN(C(=O)NCC(=O)N2CCCC2)CC1 | -0.138
77 | c1ccc(OC2CCCC2)c(CNC2CCc3ncnn3C2)c1 (stereo not drawn) | 1.21
78 | CCc1nnc2n1CCN(CC(=O)Nc1sccc1C#N)C2 | -9.93
79 | c1ncn(Cc2nnc(C3CCN(CC4CC4)CC3)n2C2CC2)n1 | -15.3
80 | Cc1nc(C)c(CN2CCC(N(C)Cc3noc(C4CC4)n3)C2)s1 (stereo not drawn) | 21.6
81 | O=c1ccc2c(n1CCN1CCCC1)CCN(c1ncccn1)CC2 | -4.06
82 | O=C(O)c1cnc(N2CCC(O)CC2)nc1COc1ccc(F)cc1 | -21.6
83 | CCOCC1CN(C(=O)c2ccnnc2)Cc2cnn(C)c21 (stereo not drawn) | -4.89
84 | Cc1nccn1-c1cc(CNC(=O)c2ccccn2)ccn1 | -4.56
85 | Cc1nc2c(C(=O)O)cccc2n1-c1ccc(C(=O)N2CCCC2)o1 | 7.08
86 | Cc1cccc(-n2cc(C(=O)N3CCCC(n4cccn4)C3)nn2)c1 (stereo not drawn) | -13.8
87 | Cc1cc2n(n1)[C@@H](C(F)(F)F)C[C@@H](C1CCN(C(=O)C(C)C)CC1)N2 | -1.78
88 | COc1ccc(CN2C[C@@H](CN(C)C)[C@@H](CO)C2)c(Cl)c1OC | -7.01
89 | CNS(=O)(=O)CCNCC1(O)CCCN(CCC2CCCCC2)C1=O (stereo not drawn) | -0.181
90 | FC(F)(F)Cn1ccnc1CNCCn1cccn1 | -6.92
91 | Cc1cccc(N2N=C(C(=O)NC(C)CCc3ccco3)CCC2=O)c1 (stereo not drawn) | 28.5
92 | CCn1c(CN(C)C)nnc1C1CCN(Cc2ccccn2)CC1 | 20.6

Row | Compound | cytotoxicity at 70.5 h [%]
93 | Cc1cccc(NC(=O)NC2CCC3(C2)OCCO3)c1Cl (stereo not drawn) | -6.97
94 | CC(=O)NCCNC(=O)N(C)Cc1ccc2c(c1)OCCO2 | -12
95 | O=C1COC2(CCN(C(=O)c3ccoc3)CC2)CN1Cc1cccnc1 | -6.92
96 | O=c1[nH]c(COc2cccc(F)c2)nc2c1CCNC2 | -17
97 | COc1ccccc1CN1C(=O)O[C@@H]2CN(C(C)C)C[C@@H]21 | -0.224
98 | Cc1cn(CC(=O)Nc2cc(C(C)C)nn2C)cn1 | -10.1
99 | O=C(c1cc2c(s1)CCOC2)N1CCCC1Cn1cccn1 (stereo not drawn) | -8.49
100 | CN(C)Cc1cnn(-c2ccccc2C(=O)NCCC2CCCN2C)c1 (stereo not drawn) | -0.0444
101 | CCC(=O)N1Cc2nccn2CC(CN(C)Cc2cccnc2)C1 (stereo not drawn) | -17.9
102 | CN(Cc1ccoc1)C(=O)C1CCN(C(=O)C2CCCC2)CC1 | 27.9
103 | CC(C)(C)S(=O)(=O)CCNC(=O)c1cnc(-c2ccccc2)nc1 | -0.525
104 | N#Cc1cc2c(=O)n(CC(O)c3cccc(O)c3)ccc2[nH]c1=O (stereo not drawn) | -6.53
105 | COc1ccc(CNC(=O)NC2CCN(c3ccccc3)C2=O)cc1 (stereo not drawn) | -4.11
106 | Cc1nn(C)c(N(C)C)c1CNCc1cccnc1OC(C)C | 21.9
107 | Fc1cccc(CN2CCC3(CCN3c3ncccn3)C2)c1 (stereo not drawn) | -8.53
108 | COc1ccccc1C(=O)N1CC(=O)N(CC(C)C)CC(O)C1 (stereo not drawn) | -1.35
109 | CN1C[C@H]2CN(C(=O)c3ccc4c(c3)OCO4)CCN2C1=O | -8.59
110 | Cc1cc(C)c(CNC(=O)N2CCCN(C(=O)C(C)C)CC2)c(C)c1 | 15.9
111 | Cc1ccc(NC2CCN(C(=O)c3cccnc3O)CC2)nn1 | 16.5
112 | CNC(=O)COC1COC2(CCN(Cc3ccncc3F)CC2)C1 (stereo not drawn) | -18
113 | CN(CC1COc2ccccc2O1)C(=O)C1=NN(C)C(=O)CC1 (stereo not drawn) | 8.57
